The record followed here is ChEMBL document CHEMBL4004887, “Design, synthesis and in vitro activity of 1,4-disubstituted piperazines and piperidines as triple reuptake inhibitors” (Bioorg Med Chem, 2017).

The structures appear in SMILES notation.

Common to all, as to format: cell-based
Experiment [1] addresses Sodium-dependent serotonin transporter (Homo sapiens, UniProt P31645). Briefly: Inhibition of [3H]-5-hydroxytryptamine reuptake in human SERT expressed in HEK293 cells by microbeta liquid scintillation counting method.
Experiment [2] has as its target Sodium-dependent noradrenaline transporter (Homo sapiens, UniProt P23975). Briefly: Inhibition of […] reuptake in human NET expressed in HEK293 cells by microbeta liquid scintillation counting method.
Experiment [3] concerns the target Sodium-dependent dopamine transporter (Homo sapiens, UniProt Q01959). Briefly: Inhibition of […] reuptake in human DAT expressed in HEK293 cells by microbeta liquid scintillation counting method.

A word on the IC50: it is the point on the concentration scale where inhibition reaches its midpoint. Higher therefore signals a need for much substance.

Sequence of Sodium-dependent noradrenaline transporter (P23975 whole entry): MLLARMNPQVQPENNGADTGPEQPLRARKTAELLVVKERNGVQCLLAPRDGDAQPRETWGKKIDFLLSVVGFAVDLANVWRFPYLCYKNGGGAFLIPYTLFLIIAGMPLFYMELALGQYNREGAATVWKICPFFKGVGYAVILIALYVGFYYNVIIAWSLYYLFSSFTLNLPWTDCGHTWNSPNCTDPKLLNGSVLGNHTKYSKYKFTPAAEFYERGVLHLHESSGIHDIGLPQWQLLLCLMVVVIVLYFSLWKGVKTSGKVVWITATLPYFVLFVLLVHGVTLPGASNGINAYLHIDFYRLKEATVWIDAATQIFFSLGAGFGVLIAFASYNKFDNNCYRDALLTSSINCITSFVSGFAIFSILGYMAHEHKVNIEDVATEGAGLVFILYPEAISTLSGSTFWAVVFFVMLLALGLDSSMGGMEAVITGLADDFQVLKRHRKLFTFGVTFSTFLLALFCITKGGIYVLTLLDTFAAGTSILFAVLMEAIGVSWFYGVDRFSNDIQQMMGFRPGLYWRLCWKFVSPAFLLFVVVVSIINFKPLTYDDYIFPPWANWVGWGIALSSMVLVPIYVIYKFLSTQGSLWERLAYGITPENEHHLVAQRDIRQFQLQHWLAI
Sequence of Sodium-dependent dopamine transporter (Q01959 whole entry): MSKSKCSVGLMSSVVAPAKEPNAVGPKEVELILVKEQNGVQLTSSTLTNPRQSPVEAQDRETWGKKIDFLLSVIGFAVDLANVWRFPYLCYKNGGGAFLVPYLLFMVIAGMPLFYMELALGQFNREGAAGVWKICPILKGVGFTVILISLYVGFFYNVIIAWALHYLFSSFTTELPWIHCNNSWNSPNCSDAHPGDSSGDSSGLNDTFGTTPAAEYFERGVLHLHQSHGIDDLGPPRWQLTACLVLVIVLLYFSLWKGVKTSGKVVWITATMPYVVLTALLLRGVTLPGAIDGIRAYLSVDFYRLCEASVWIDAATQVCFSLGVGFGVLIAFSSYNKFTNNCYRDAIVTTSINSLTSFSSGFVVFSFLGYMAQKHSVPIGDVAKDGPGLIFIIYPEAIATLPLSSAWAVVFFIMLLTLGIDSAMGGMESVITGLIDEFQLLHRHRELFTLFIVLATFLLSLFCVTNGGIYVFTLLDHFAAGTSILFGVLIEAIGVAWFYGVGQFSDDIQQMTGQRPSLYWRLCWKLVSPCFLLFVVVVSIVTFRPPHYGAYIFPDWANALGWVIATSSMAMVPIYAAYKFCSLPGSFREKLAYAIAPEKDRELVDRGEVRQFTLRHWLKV
Sequence of Sodium-dependent serotonin transporter (P31645 whole entry): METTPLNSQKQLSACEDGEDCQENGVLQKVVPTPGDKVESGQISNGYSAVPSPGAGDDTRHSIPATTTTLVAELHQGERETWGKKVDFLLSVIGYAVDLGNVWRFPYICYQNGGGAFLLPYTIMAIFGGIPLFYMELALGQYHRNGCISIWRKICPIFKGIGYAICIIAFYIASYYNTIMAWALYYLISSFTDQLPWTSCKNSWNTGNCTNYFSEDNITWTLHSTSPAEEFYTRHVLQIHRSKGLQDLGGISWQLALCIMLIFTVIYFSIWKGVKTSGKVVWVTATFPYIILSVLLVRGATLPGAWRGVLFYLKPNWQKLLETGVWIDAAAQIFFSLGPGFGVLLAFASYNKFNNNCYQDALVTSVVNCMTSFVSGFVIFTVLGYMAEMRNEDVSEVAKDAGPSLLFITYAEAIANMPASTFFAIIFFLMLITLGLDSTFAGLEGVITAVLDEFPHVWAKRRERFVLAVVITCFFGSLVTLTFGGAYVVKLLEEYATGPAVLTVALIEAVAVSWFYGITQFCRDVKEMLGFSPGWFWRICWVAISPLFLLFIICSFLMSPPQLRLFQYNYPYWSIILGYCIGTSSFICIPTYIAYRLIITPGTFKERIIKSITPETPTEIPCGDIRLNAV

Regarding `O=C(NCCCN1CCC(Cc2ccccc2)CC1)C(c1ccccc1)c1ccccc1`, the IC50 in experiment [1] was over 10 µM; in experiment [2] it was 2.21 µM; in experiment [3] it was 1.07 µM.

For `O=C(NCCCN1CCC(Cc2ccccc2)CC1)C(c1ccc(Cl)cc1)c1ccc(Cl)cc1`, the IC50 in experiment [1] worked out at 7.67 µM; in experiment [2] it was 2.02 µM; in experiment [3], 1.35 µM.

On to `O=C(NCCN1CCC(Cc2ccccc2)CC1)C(c1ccccc1)c1ccccc1`, for which the IC50 in experiment [1] is over 10 µM; in experiment [2] it was 1.68 µM; in experiment [3], 0.19 µM.

Consider `O=C(NCCN1CCC(Cc2ccccc2)CC1)C(c1ccc(Cl)cc1)c1ccc(Cl)cc1`, for which the IC50 in experiment [1] is over 10 µM; in experiment [2] it was 8.03 µM; in experiment [3], 0.63 µM.

Consider `C(=C\c1ccccc1)/CN1CCN(CCCn2nnnc2C(c2ccccc2)c2ccccc2)CC1`, for which the IC50 in experiment [1] is 7.5 µM; in experiment [2], 1.33 µM; in experiment [3] it was 2.23 µM.

In the case of `c1ccc(CCCN2CCN(CCCn3nnnc3C(c3ccccc3)c3ccccc3)CC2)cc1`, the values for the IC50 in experiment [1], in experiment [2] and in experiment [3] were 8 µM, 0.569 µM and 1.64 µM, respectively.

Consider `Fc1ccc(C(OCCN2CCN(c3cccc(Cl)c3Cl)CC2)c2ccc(F)cc2)cc1`, for which the IC50 in experiment [1] was 5 µM; in experiment [2], 3 µM; in experiment [3], 3 µM.

`Fc1ccc(C(OCCN2CCN(c3ccccc3Cl)CC2)c2ccc(F)cc2)cc1`: the results for the IC50 in experiment [1], in experiment [2] and in experiment [3] were over 10 µM, 1.26 µM and 5.6 µM, respectively.

For the molecule `Fc1ccc(C(OCCN2CCC(Cc3ccccc3)CC2)c2ccc(F)cc2)cc1`, the values for the IC50 in experiment [1], in experiment [2] and in experiment [3] were 1.67 µM, 5.86 µM and 6.82 µM, respectively.

On to `c1ccc(CC2CCN(CCCn3nnnc3C(c3ccccc3)c3ccccc3)CC2)cc1`, for which the IC50 is over 10 µM in experiment [1], 0.519 µM in experiment [2] and 0.094 µM in experiment [3].

With `c1ccc(CN2CCN(CCCn3nnnc3C(c3ccccc3)c3ccccc3)CC2)cc1`, the IC50 in experiment [1] is 5.05 µM; in experiment [2] it was 0.521 µM; in experiment [3], 0.292 µM.

As to `c1ccc(CCN2CCN(CCCCn3nnnc3C(c3ccccc3)c3ccccc3)CC2)cc1`, the results for the IC50 in experiment [1], in experiment [2] and in experiment [3] were 8 µM, 0.329 µM and 0.608 µM, respectively.

Take `C(=C\c1ccccc1)/CN1CCN(CCCCn2nnnc2C(c2ccccc2)c2ccccc2)CC1`: the half-maximal inhibitory concentration (IC50) in experiment [1] was 6.29 µM; in experiment [2], 0.318 µM; in experiment [3], 3.64 µM.

As for `Fc1ccc(C(OCCN2CCN(c3ccccn3)CC2)c2ccc(F)cc2)cc1`, the IC50 in experiment [1] amounted to 0.579 µM; in experiment [2], 0.603 µM; in experiment [3] it was 0.99 µM.

As to `Fc1ccc(C(OCCN2CCN(c3ccc(Cl)cc3Cl)CC2)c2ccc(F)cc2)cc1`, the figures for the half-maximal inhibitory concentration (IC50) in experiment [1], in experiment [2] and in experiment [3] were 3.91 µM, 3.75 µM and 10 µM, respectively.

Consider `c1ccc(CCN2CCN(CCn3nnnc3C(c3ccccc3)c3ccccc3)CC2)cc1`, for which the IC50 in experiment [1] came out at 4.83 µM; in experiment [2], 2.83 µM; in experiment [3] it was 0.68 µM.

Turning to `Fc1ccc(C(OCCN2CCN(c3cccc(Cl)c3)CC2)c2ccc(F)cc2)cc1`, the IC50 in experiment [1] was 4.96 µM; in experiment [2] it was 1.31 µM; in experiment [3], 2.75 µM.

As for `c1ccc(CCCN2CCN(CCn3nnnc3C(c3ccccc3)c3ccccc3)CC2)cc1`, the IC50 in experiment [1] was 3.86 µM; in experiment [2] it was 1.47 µM; in experiment [3], 0.692 µM.

Turning to `Fc1ccc(C(OCCN2CCN(c3ccc(Cl)cc3)CC2)c2ccc(F)cc2)cc1`, the values for the IC50 in experiment [1], in experiment [2] and in experiment [3] were 6.91 µM, 1.59 µM and 1.39 µM, respectively.

With `c1ccc(CC2CCN(CCn3nnnc3C(c3ccccc3)c3ccccc3)CC2)cc1`, the concentration for half-maximal inhibition (IC50) in experiment [1] was 7.7 µM; in experiment [2] it was 1.71 µM; in experiment [3], 0.31 µM.

For the molecule `Fc1ccc(C(OCCN2CCN(c3ccccc3)CC2)c2ccc(F)cc2)cc1`, the results for the IC50 in experiment [1], in experiment [2] and in experiment [3] were 1.91 µM, 5.33 µM and 10 µM, respectively.

As to `c1ccc(CN2CCN(CCn3nnnc3C(c3ccccc3)c3ccccc3)CC2)cc1`, the half-inhibitory concentration (IC50) in experiment [1] was over 10 µM; in experiment [2] it was 4.22 µM; in experiment [3], 2.29 µM.

On to `c1ccc(CCN2CCN(CCCn3nnnc3C(c3ccccc3)c3ccccc3)CC2)cc1`, for which the IC50 amounted to 1.12 µM in experiment [1], 0.4 µM in experiment [2] and 1.11 µM in experiment [3].

On to `c1ccc(CC2CCN(CCCCn3nnnc3C(c3ccccc3)c3ccccc3)CC2)cc1`, for which the IC50 came to 0.55 µM in experiment [1], 1.53 µM in experiment [2] and 0.59 µM in experiment [3].

Take `C(=C\c1ccccc1)/CN1CCN(CCn2nnnc2C(c2ccccc2)c2ccccc2)CC1`: the IC50 in experiment [1] is over 10 µM; in experiment [2], 1.76 µM; in experiment [3], 0.94 µM.

In the case of `Fc1ccc(C(OCCN2CCN(c3ccc(Cl)c(Cl)c3)CC2)c2ccc(F)cc2)cc1`, the concentration for half-maximal inhibition (IC50) stood at 5.22 µM in experiment [1], 1.32 µM in experiment [2] and 4.1 µM in experiment [3].

Take `c1ccc(CN2CCN(CCCCn3nnnc3C(c3ccccc3)c3ccccc3)CC2)cc1`: the figures for the IC50 in experiment [1], in experiment [2] and in experiment [3] were 1.5 µM, 0.323 µM and 0.317 µM, respectively.

On to `Fc1ccc(C(OCCN2CCN(c3ncccn3)CC2)c2ccc(F)cc2)cc1`, for which the figures for the IC50 in experiment [1], in experiment [2] and in experiment [3] were 1.41 µM, 1.62 µM and 1.7 µM, respectively.
